Tested on: Phomopsis asparagi (Sacc.)
Assay: laboratory toxicity, mycelium growth rate method
Type: cell-based
Details: for ATI (actually-determined toxicity index): (EC50 of standard agent/EC50 of agent to be tested)×100, difenoconazole = 100; for EC50: Phomopsis asparagi, pathogenic fungi of asparagus stem blight collected from the field
Method: According to Sun Yunpei method, the synergistic effect of the mixed drug was evaluated based on a cotoxicity coefficient (CTC). […] The subjects to be tested were pathogenic fungi of asparagus stem blight collected from the field. The determination method was conducted with reference to the mycelium growth rate method in “Technical regulation on agricultural construction project acceptance NY/T 1156.6-2006 of the People's Republic of China”.

Row | SMILES | ATI (actually-determined toxicity index) | EC50 [µg/mL]
1 | CC1COC(Cn2cncn2)(c2ccc(Oc3ccc(Cl)cc3)cc2Cl)O1 (stereo not shown) [difenoconazole] | 100.00 | 0.088
2 | N=C(N)c1ccc(OCCCOc2ccc(C(=N)N)cc2)cc1 [propamidine] | 166.04 | 0.053

From patent US20200045969A1, “Fungicidal Composition and Fungicide for Controlling Asparagus Stem Blight” (Institute of Plant Protection, Jiangxi Academy of …, priority 2018, published 2020)
